Data reported in patent US20240376124A1, “Macrocyclic Kinase Inhibitors” (Incyte Corporation, priority 2023, published 2024).
“And” between values parts separate entries of the source, which are not always exact repeats. Equal values may be shown once.

Legend:
[1] = molecular target: T1, catalytic domain (JH1, amino acids 826-1132) of human JAK2 (Homo sapiens, UniProt O60674); experiment: JAK2 LanthaScreen JH1 binding assay; details: JAK2 JH1, 50 nM tracer; read-out: JH1BIND IC50
T1 construct: catalytic domain (JH1, amino acids 826-1132) of human JAK2; FLAG (N); purchased Carna Biosciences 08-445-20N; host or cells: baculovirus expression system
T1 sequence (O60674 826-1132): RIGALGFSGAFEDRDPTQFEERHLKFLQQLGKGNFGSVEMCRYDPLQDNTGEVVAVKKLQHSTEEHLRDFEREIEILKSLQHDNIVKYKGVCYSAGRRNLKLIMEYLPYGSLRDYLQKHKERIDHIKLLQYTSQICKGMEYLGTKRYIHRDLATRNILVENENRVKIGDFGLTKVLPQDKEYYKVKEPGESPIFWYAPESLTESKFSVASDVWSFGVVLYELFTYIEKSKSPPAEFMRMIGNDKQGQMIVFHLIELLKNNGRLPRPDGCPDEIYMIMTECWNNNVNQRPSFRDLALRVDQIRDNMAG
Method: Example A. JAK2 LanthaScreen […] Binding Assay
JAK2 JH1 binding assay utilizes catalytic domain (JH1, amino acids 826-1132) of human JAK2 expressed as N-terminal FLAG-tagged, biotinylated protein in a baculovirus expression system (Carna Biosciences, Product #08-445-20N). The assay was conducted in black 384-well polystyrene plates in a final reaction volume of 20 μL. JAK2 JH1 (1.5 nM) was incubated with compounds (100 nL serially diluted in DMSO) in the presence of 50 nM fluorescent JAK2-JH1 tracer and 0.5 nM Streptavidin-Tb cryptate (Cisbio Part #610SATLB) in assay buffer (50 mM Tris, pH=7.5, 10 mM MgCl2, 0.01% Brij-35, 0.1% BSA, 1 mM EGTA, […] and 5 mM DTT). Non-specific binding was accessed in the presence of 2 mM ATP. After incubation for 2 hours at 25° C., LanthaScreen signals were read on a PHERAstar FS plate reader (BMG LABTECH).
Data was analyzed with IDBS XLfit and GraphPad Prism 5.0 software using a four parameter dose response curve to determine IC50 for each compound.

[2] = molecular target: T2, pseudo-kinase domain (JH2, amino-acids 536-812) of human V617F mutant JAK2 (Homo sapiens, UniProt O60674, F794H/V617F/W659A/W777A); experiment: JAK2 LanthaScreen JH2-V617F Binding Assay; details: 50 nM tracer, read-out: JH2BINDING—V617F IC50
T2 construct: pseudo-kinase domain (JH2, amino-acids 536-812 with 3 surface mutations W659A, W777A, F794H); His (C); purchased BPS Bioscience 79498; host or cells: baculovirus expression system
T2 sequence (O60674 536-812 V617F/W659A/W777A/F794H): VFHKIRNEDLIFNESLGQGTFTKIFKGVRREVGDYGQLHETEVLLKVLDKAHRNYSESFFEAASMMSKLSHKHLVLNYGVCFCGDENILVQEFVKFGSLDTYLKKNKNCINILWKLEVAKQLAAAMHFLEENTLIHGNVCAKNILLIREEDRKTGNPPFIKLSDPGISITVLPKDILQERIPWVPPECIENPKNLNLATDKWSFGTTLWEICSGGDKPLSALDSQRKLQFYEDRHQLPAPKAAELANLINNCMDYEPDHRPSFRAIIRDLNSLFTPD
Method: Example C. JAK2 LanthaScreen JH2-V617F Binding Assay
(§1) JAK2 JH2-V617F binding assay utilizes pseudo-kinase domain (JH2, amino-acids 536-812 with 3 surface mutations W659A, W777A, F794H) of human V617F mutant JAK2 expressed as C-terminal His-Avi-tagged, biotinylated protein in a baculovirus expression system (BPS Bioscience, Catalog #79498). The assay was conducted in black 384-well polystyrene plates in a final reaction volume of 20 μL. JAK2 JH2-V617F (0.26 nM) was incubated with compounds (100 nL serially diluted in DMSO) in the presence of 50 nM Fluorescent JAK2-JH2 Tracer (MedChem Express Catalog #HY-102055) and 0.25 nM Streptavidin-Tb cryptate (Cisbio Part #610SATLB) in assay buffer (50 mM Tris, pH=7.5, 10 mM MgCl2, 0.01% Brij-35, 0.1% BSA, 1 mM EGTA, 5% Glycerol and 5 mM DTT). Non-specific binding was accessed in the presence of 2 mM ATP. After incubation for 1 hour at 25° C., LanthaScreen signals were read on a PHERAstar FS plate reader (BMG LABTECH). Data was analyzed with IDBS XLfit and GraphPad Prism 5.0 software using a four parameter dose response curve to determine IC50 for each compound.

[3] = molecular target: T3, pseudo-kinase domain (JH2, amino-acids 536-812) of human Wild Type JAK2 (Homo sapiens, UniProt O60674, F794H/W659A/W777A); experiment: JAK2 LanthaScreen JH2-WT Binding Assay; details: 50 nM tracer, read-out: JH2BIND_WT IC50
T3 construct: pseudo-kinase domain (JH2, amino-acids 536-812 with 3 surface mutations W659A, W777A, F794H); His (C); purchased BPS Bioscience 79463; host or cells: baculovirus expression system
T3 sequence (O60674 536-812 W659A/W777A/F794H): as the sequence (O60674 536-812 V617F/W659A/W777A/F794H) above, with F82V counted along it
Method: Example B. JAK2 LanthaScreen JH2-WT Binding Assay
as §1, with “JH2-WT” for “JH2-V617F”, “Wild Type” for “V617F mutant”, “#79463).” for “#79498).”, “JH2-WT (0.145” for “JH2-V617F (0.26”

[4] = molecular target: T4, catalytic domain (JH1, amino acids 808-1132) of human JAK2 (Homo sapiens, UniProt O60674); experiment: JAK2 HTRF Enzyme Activity Assay; type: biochemical; details: ATP 30 μM; read-out: ENZ 30UMATP IC50
T4 construct: catalytic domain (JH1, amino acids 808-1132) of human JAK2; His (N); purchased BPS Bioscience 40450; host or cells: baculovirus expression system
T4 sequence (O60674 808-1132): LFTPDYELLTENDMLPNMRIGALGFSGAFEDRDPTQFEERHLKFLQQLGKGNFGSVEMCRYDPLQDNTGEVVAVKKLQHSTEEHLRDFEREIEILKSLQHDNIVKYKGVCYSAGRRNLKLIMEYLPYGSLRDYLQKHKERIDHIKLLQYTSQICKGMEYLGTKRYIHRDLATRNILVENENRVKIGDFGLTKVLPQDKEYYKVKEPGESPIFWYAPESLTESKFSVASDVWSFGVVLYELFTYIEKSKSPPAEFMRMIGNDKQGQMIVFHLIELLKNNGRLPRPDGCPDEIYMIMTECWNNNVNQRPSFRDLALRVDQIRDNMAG
Method: Example D. JAK2 HTRF Enzyme Activity Assay
JAK2 enzyme activity assays utilize catalytic domain (JH1, amino acids 808-1132) of human JAK2 expressed as N-terminal His-tagged protein in a baculovirus expression system (BPS Bioscience, Catalog #40450). The assays was conducted in black 384-well polystyrene plates in a final reaction volume of 20 μL. JAK2 (0.015 nM) was incubated with compounds (100 nL serially diluted in DMSO) in the presence of ATP (30 μM or 1 mM) and 500 nM Biotin-labeled EQEDEPEGDYFEWLE (SEQ ID NO.: 1) peptide (BioSource International, custom synthesis) in assay buffer (50 mM Tris, pH=7.5, 10 mM MgCl2, 0.01% Brij-35, 0.1% BSA, 1 mM EGTA, 5% Glycerol and 5 mM DTT) for 60 minutes at 25° C. The reactions were stopped by the addition of 10 μL of detection buffer (50 mM Tris, pH 7.8, 0.5 mg/mL BSA, 150 mM NaCl), supplemented with EDTA, LANCE Eu-W1024 anti-phosphotyrosine (PY20), (PerkinElmer, Catalog #AD0067) and Streptavidin SureLight APC (PerkinElmer Catalog #CR130-100), for a final concentration of 15 mM, 1.5 nM and 75 nM, respectively. HTRF signals were read after 30 minutes incubation at room temperature on a PHERAstar FS plate reader (BMG LABTECH). Data was analyzed with IDBS XLfit and GraphPad Prism 5.0 software using a four parameter dose response curve to determine IC50 for each compound. The compounds of the disclosure were tested in one or more of the assays described in Examples A-D, and the resulting data are shown in Table A.

| Compound | IC50 [1] | IC50 [2] | IC50 [3] | IC50 [4] |
| --- | --- | --- | --- | --- |
| [2H]C([2H])([2H])n1c(=O)n2c3c4c(c(-c5cnn(CCOC)c5)[nH]c4ncc31)-c1ccc(cc1)OCC/C=C/C[C@]1(NC(=O)[C@H]3C[C@H]3F)CC[C@@H]2CC1 [Example 8, (1R,2R)-2-Fluoro-N-((3^1S,3^4s,E)-2^7-(1-(2-methoxyethyl)-1H-pyrazol-4-yl)-2^3-(methyl-d3)-2^2-oxo-2^1,2^2,2^3,2^6-tetrahydro-9-oxa-2(8,1)-imidazo[4,5-d]pyrrolo[2,3-b]pyridina-1(1,4)-benzena-3(1,4)-cyclohexanacyclononaphan-5-en-3^4-yl)cyclopropane-1-carboxamide] | 500 to 1000 nM | ≤ 10 nM | ≤ 10 nM | 500 to 1000 nM |
| [2H]C([2H])([2H])n1c(=O)n2c3c4c(c(-c5cn(C)nc5OC)[nH]c4ncc31)-c1ccc(cc1)CNCC[C@]1(NC(=O)C3CC3)CC[C@@H]2CC1 [Example 7, N-((3^1s,3^4s)-2^7-(3-Methoxy-1-methyl-1H-pyrazol-4-yl)-2^3-(methyl-d)-2^2-oxo-2^1,2^2,2^3,2^6-tetrahydro-6-aza-2(8,1)-imidazo[4,5-d]pyrrolo[2,3-b]pyridina-1(1,4)-benzena-3(1,4)-cyclohexanacycloheptaphane-3^4-yl)cyclopropanecarboxamide] | > 1000 nM | 10 to 100 nM | ≤ 10 nM | > 1000 nM |
| N-((3^1r,3^4s)-2^7-(3-Methoxy-1-methyl-1H-pyrazol-4-yl)-2^3-(methyl-d3)-2^2-oxo-2^1,2^2,2^3,2^6-tetrahydro-8-oxa-2(8,1)-imidazo[4,5-d]pyrrolo[2,3-b]pyridina-1(1,4)-benzena-3(1,4)-cyclohexanacyclooctaphane-3^4-yl)cyclopropanecarboxamide [Example 5] | > 1000 nM | ≤ 10 nM | ≤ 10 nM | > 1000 nM |
| [2H]C([2H])([2H])n1c(=O)n2c3c4c(c(-c5cn(C)nc5OC)[nH]c4ncc31)-c1ccc(cc1)OCCC/C=C/C[C@]1(NC(=O)C3CC3)CC[C@@H]2CC1 [Example 3, N-((3^1s,3^4s,E)-2^7-(3-Methoxy-1-methyl-1H-pyrazol-4-yl)-2^3-(methyl-d3)-2^2-oxo-2^1,2^2,2^3,2^6-tetrahydro-10-oxa-2(8,1)-imidazo[4,5-d]pyrrolo[2,3-b]pyridina-1(1,4)-benzena-3(1,4)-cyclohexanacyclodecaphan-5-en-3^4-yl)cyclopropanecarboxamide] | > 1000 nM | ≤ 10 nM | ≤ 10 nM | > 1000 nM |
| N-((3^1r,3^4s)-2^7-(3-Methoxy-1-methyl-1H-pyrazol-4-yl)-2^3-(methyl-d3)-2^2-oxo-2^1,2^2,2^3,2^6-tetrahydro-9-oxa-2(8,1)-imidazo[4,5-d]pyrrolo[2,3-b]pyridina-1(1,4)-benzena-3(1,4)-cyclohexanacyclononaphane-3^4-yl)cyclopropanecarboxamide [Example 4] | > 1000 nM | ≤ 10 nM | ≤ 10 nM | > 1000 nM |
| [2H]C([2H])([2H])n1c(=O)n2c3c4c(c(-c5cn(CC6CC6)nc5F)[nH]c4ncc31)-c1ccc(cc1)OCC/C=C/C[C@]1(NC(=O)[C@H]3C[C@H]3F)CC[C@@H]2CC1 [Example 14, (1R,2R)-N-((3^1S,3^4s,E)-2^7-(1-(cyclopropylmethyl)-3-fluoro-1H-pyrazol-4-yl)-2^3-(methyl-d3)-2^2-oxo-2^1,2^2,2^3,2^6-tetrahydro-9-oxa-2(8,1)-imidazo[4,5-d]pyrrolo[2,3-b]pyridina-1(1,4)-benzena-3(1,4)-cyclohexanacyclononaphan-5-en-3^4-yl)-2-fluorocyclopropane-1-carboxamide] | 500 to 1000 nM and > 1000 nM | ≤ 10 nM | ≤ 10 nM | 500 to 1000 nM and > 1000 nM |
| [2H]C([2H])([2H])n1c(=O)n2c3c4c(c(-c5cn(C)nc5OC)[nH]c4ncc31)-c1ccc(cc1)OCC/C=C/C[C@]1(NC(=O)C3CC3)CC[C@@H]2CC1 [Example 2, N-((3^1s,3^4s,E)-2^7-(3-Methoxy-1-methyl-1H-pyrazol-4-yl)-2^3-(methyl-d3)-2^2-oxo-2^1,2^2,2^3,2^6-tetrahydro-9-oxa-2(8,1)-imidazo[4,5-d]pyrrolo[2,3-b]pyridina-1(1,4)-benzena-3(1,4)-cyclohexanacyclononaphan-5-en-3^4-yl)cyclopropanecarboxamide] | > 1000 nM | ≤ 10 nM | ≤ 10 nM | > 1000 nM |
| [2H]C([2H])([2H])n1c(=O)n2c3c4c(c(-c5cn(C(C)C)nc5F)[nH]c4ncc31)-c1ccc(cc1)OCC/C=C/C[C@]1(NC(=O)[C@H]3C[C@H]3F)CC[C@@H]2CC1 [Example 13, (1R,2R)-2-fluoro-N-((3^1S,3^4s,E)-2^7-(3-fluoro-1-isopropyl-1H-pyrazol-4-yl)-2^3-(methyl-d3)-2^2-oxo-2^1,2^2,2^3,2^6-tetrahydro-9-oxa-2(8,1)-imidazo[4,5-d]pyrrolo[2,3-b]pyridina-1(1,4)-benzena-3(1,4)-cyclohexanacyclononaphan-5-en-3^4-yl)cyclopropane-1-carboxamide] | > 1000 nM | ≤ 10 nM | ≤ 10 nM | > 1000 nM |
